In patent publication US20240360458A1, “TARGETED AND SLOW-RELEASE DRUG CONJUGATE COMPOSITION” (Centre for Eye and Vision Research Limited, priority 2023, published 2024):
Values belong to the substance of their own block, whether it stands above or below them.

How the values were obtained:
[1] = tested on: HCECs in hyperosmolarity medium; experiment: Cellular uptake and retention of CsA liposomes in dry eye HCECs model; assay type: cell-based, human; settings: DED model
Procedure: To construct a dry eye disease (DED) cell model, HPV-immortalized human corneal epithelial cells (HCECs) (passages 6-10) were maintained in DMEM/F12 medium supplemented with 1% FBS and 1% penicillin/streptomycin at 37° C., 95% humidity, and 5% CO2. The cell medium was changed every 2 days. To establish an in vitro DED model, sodium chloride was added to the culture medium to increase the osmolarity of the medium by 200 mOsM.
HCECs were seeded on glass bottom culture dishes at 10,000 cells/compartment for 24 h. To test the binding of the aptamer to cells, HCECs were incubated with FAM-labelled T30 DNA sequence (negative control), Cornea-S1, or Cornea-S2 aptamers for 30 min. […] HCECs cultured in the isosmotic medium were used as a control. After incubation, the cells were washed 2 times with ice-cold PBS and were then stained with 1 μg mL^−1 Hoechst 33342 in PBS for nucleus staining for 1 min at RT. Fluorescence images were captured at the mid-plane of cells (magnification: 400×) by Nikon Eclipse Ti Inverted Research Microscope. […]
The CsA-loaded liposomes were tested for cellular uptake and retention in a dry eye HCECs model induced by a high osmolarity medium. […] Additionally, liposome retention in cells was assessed by pretreating the cells with liposomes for 4 hours, followed by a 20-hour incubation period in liposome-free medium.

[2] = tested on: human corneal epithelial cells (HCECs); experiment: Flow cytometry binding of FAM-labelled aptamers to HCECs; settings: FAM-labelled free aptamer, room temperature, read-out: dissociation constant (Kd) of aptamer in HCECs
Procedure: Due to the large size of cornea tissue, it is difficult to do quantitative binding assays. Thus, the binding of FAM-labelled aptamer to human corneal epithelial cells (HCECs) was tested using flow cytometry and fluorescence microscopy. BSA and salmon DNA were added to the blocking buffer to reduce non-specific binding before the incubation with FAM-labelled aptamers.
(§1) The cells were then incubated with blocking buffer (1% BSA, 0.1 mg mL^−1 Salmon sperm DNA in PBS) for 30 min at room temperature. After washing with PBS under centrifugation, 3×10^5 cells were incubated with pre-heated Cornea-S1 or Cornea-S2 aptamers or aptamer liposomes at various concentrations in PBS for 30 min at room temperature. After incubation, the cells were rinsed three times with 500 μL of PBS and then resuspended in 200 μL of PBS. The fluorescence signal was analyzed with a NovoCyte Flow Cytometer (Agilent Technologies). The equilibrium dissociation constants (Kd) value of each aptamer or aptamer liposome was obtained by GraphPad Prism 9 according to […]

[3] = tested on: human corneal epithelial cells (HCECs); experiment: Fluorescence microscopy of FAM-labelled aptamer binding in HCECs; settings: FAM-labelled DNA, 30 min incubation
Procedure: HCECs were seeded on glass bottom culture dishes at 10,000 cells/compartment for 24 h. To test the binding of the aptamer to cells, HCECs were incubated with FAM-labelled T30 DNA sequence (negative control), Cornea-S1, or Cornea-S2 aptamers for 30 min. […] HCECs cultured in the isosmotic medium were used as a control. After incubation, the cells were washed 2 times with ice-cold PBS and were then stained with 1 μg mL^−1 Hoechst 33342 in PBS for nucleus staining for 1 min at RT. Fluorescence images were captured at the mid-plane of cells (magnification: 400×) by Nikon Eclipse Ti Inverted Research Microscope. The excitation wavelengths of Hoechst, Rh-PE, and FAM were 361 nm, 560 nm, and 498 nm respectively.
Furthermore, the binding of FAM-labelled aptamers in HCECs was visualized under a fluorescence microscope.

[4] = tested on: cell surface protein of HCECs; experiment: Flow cytometry of aptamer binding to intact vs trypsin-treated HCECs; set-up: species or system human
Procedure: To understand the type of target, the HCECs were treated with trypsin, which degraded surface proteins.
as §1

[5] = tested on: BAC-induced dry eye rabbit model; experiment: Corneal fluorescein staining in BAC-induced dry eye rabbits; assay type: in vivo, New Zealand White rabbits; settings: 4-week 0.1% BAC, then topical treatment twice daily up to 3 weeks
Procedure: (§2) A 4-week 0.1% BAC treatment could induce stable dry eye condition in rabbits and no severe corneal damage was observed. Thus, a 4-week 0.1% BAC installation followed by a 3-week topical treatment of Restasis® or liposomes was used in the present invention. Corneal fluorescein staining, tear breakup time and tear production were measured before and after BAC installation and weekly throughout the 3-week treatment period.
(§3) Ten male New Zealand White rabbits, weighing between 3 to 3.5 kg each, were procured from Charles River Laboratories. They were housed within the Centralized Animal Facility at the University of Waterloo, where they were subjected to a 12-hour cycle of alternating light and darkness. The temperature was maintained at 23° C.±2° C., with a relative humidity of 60%±10%. The entire experimental procedure was conducted by ethical guidelines and received approval from the Animal Care Committee under Application No. 44737. Upon a 2-week acclimation period, eight rabbits were chosen at random to induce stable dry eye disease. This was achieved through the topical application of 0.1% benzalkonium chloride (BAC) at a dosage of 20 μL per installation. This protocol was repeated twice a day (at 10 a.m. and 5 p.m.) for the subsequent 4 weeks. The remaining two rabbits constituted the control group and received PBS through a similar administration schedule. […]

[6] = tested on: human corneal epithelial cells (HCECs); experiment: Flow cytometry binding affinity of aptamer CsA liposomes in HCECs; settings: liposome vs free aptamer
Procedure: The binding affinity of each aptamer liposome in HCECs was measured by flow cytometry. The cells were incubated with liposomes at room temperature, instead of in a 37° C. incubator, to reduce the internalization of liposomes by endocytosis. […] This apparent Kd is much lower than that observed in the free aptamers, for example, Cornea-S1 being 300-fold lower, and this was attributed to the stronger polyvalent binding increasing the avidity of the aptamer-functionalized liposomes.
as §1

[7] = tested on: unidentified trypsin-sensitive surface protein(s) of human corneal epithelial cells (HCECs) (Homo sapiens); experiment: flow
[8] = tested on: BAC-induced dry eye rabbit model; experiment: Tear break-up time (TBUT) in BAC-induced dry eye rabbits; assay type: in vivo, New Zealand White rabbits; settings: after 4 weeks of 0.1% BAC installation
Procedure: as §2
as §3, with “disease.” for “disease. This was achieved through the topical application of 0.1% benzalkonium chloride (BAC) at a dosage of 20 μL per installation. This protocol was repeated twice a day (at 10 a.m. and 5 p.m.) for the subsequent 4 weeks. The remaining two rabbits constituted the control group and received PBS through a similar administration schedule.”
Rabbits were sedated by the aforementioned procedure. TBUT was evaluated utilizing a handheld EasyTear® VIEW+ Tearscope with a grid pattern, in conjunction with the S4 OPTIK HR Elite Mega Digital Vision system. […] This measurement was repeated thrice to ensure accuracy, and an average value was calculated for analysis.

[9] = tested on: BAC-induced dry eye rabbit model; experiment: Tear production (Schirmer tear strips) in BAC-induced dry eye rabbits; assay type: in vivo, New Zealand White rabbits; settings: after 4-week 0.1% BAC installation
Procedure: as §2
as §3, with “disease.” for “disease. This was achieved through the topical application of 0.1% benzalkonium chloride (BAC) at a dosage of 20 μL per installation. This protocol was repeated twice a day (at 10 a.m. and 5 p.m.) for the subsequent 4 weeks. The remaining two rabbits constituted the control group and received PBS through a similar administration schedule.”
The aqueous tear production was measured with Schirmer Tear Strips (SPORTS WORLD VISION). The strips were placed inside the margin of the nictitating membrane of the lower eyelid of the rabbit for 5 min and the wetting length of the strip was measured as an indication of tear production.

[10] = 3'-FAM, whole-cell apparent Kd, PBS, room temperature, 30 min, trypsin treatment lowers binding

Substance: Cornea-S1: DNA aptamer from cornea tissue-SELEX, family 1: GACGACGGCAAGGGGAAAGTGGTCGTAATCACGACGGTCGTC (DNA, backbone not given here; further chemistry not fully specified)
extended retention of liposomes [1]: up to 24 hours
Kd [2]: 362 nM
FAM signals in HCECs under fluorescence microscope ([3]; listed as Conrea-S1): intensive FAM signals
FAM signals in HCECs under fluorescence microscope ([3]; listed as Corena-S1): observably higher than Conrea-S2 and S2.2 aptamer
FAM signals in trypsin-treated cells compared with intact cells [4]: significantly lower FAM signals
corneal fluorescein staining / corneal integrity [5]: markedly diminished to residual staining or isolated dots
apparent Kd of liposome lower than that of the free aptamer [6]: 300 fold

Substance: Cornea-S2: DNA aptamer from cornea tissue-SELEX, family 2: GACGACTTATGCTTGGGACCTGATCCGGACTACGGTGTCGTC (DNA, backbone not given here; further chemistry not fully specified)
extended retention of liposomes [1]: up to 24 hours
Kd [2]: 174 nM
FAM signals in HCECs under fluorescence microscope [3]: intensive FAM signals
FAM signals in trypsin-treated cells compared with intact cells [4]: significantly lower FAM signals

Substance: GACGACGGCAAGGGGAAAGTGGTCGTAATCACGACGGTCGTC [FAM-Cornea-S1]
Kd [7, 10]: 362 nM

Substance: GACGACGGCAAGGGGAAAGTGGTCGTAATCACGACGGTCGTCTTTTT [Cornea-S1-chol liposome]
Kd ([7]; 3'-cholesterol, inserted in CsA liposome (about 690 strands per liposome), polyvalent liposome on whole cells, PBS, room temperature): 1.2 nM

Substance: GACGACTTATGCTTGGGACCTGATCCGGACTACGGTGTCGTC [FAM-Cornea-S2]
Kd [7, 10]: 174 nM

Substance: GACGACTTATGCTTGGGACCTGATCCGGACTACGGTGTCGTCTTTTT [Cornea-S2-chol liposome]
Kd ([7]; 3'-cholesterol, inserted in CsA liposome (about 690 strands per liposome), polyvalent liposome on whole cells, p92 gives 15.1 nM): 15 nM

reduction in TBUT compared to baseline [8]: 60-70%
decrease in tear production [9]: 25-35%
Substance: benzalkonium chloride [BAC]
